The supplement of paper PMC4862054

system: CAL-120; experiment: normalised response (% of control), CellTiter-Glo; higher = more viable cells (100 = DMSO, 0 = benzethonium chloride kill control); settings: incubation time: 72 h
Outline: (§1)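 Each value is the plate-normalised signal at one concentration of the series. Breast cancer cell lines (20 µl suspension) were incubated 72 h in 384-well plates with compound at 5 concentrations in 10-fold steps over a compound-specific 10,000-fold range. CellTox Green and then CellTiter-Glo were read, and each plate was scaled to 0.1 % DMSO (100) and a positive kill control (0).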

Compound	normalised response
CNC(=O)c1ccccc1Sc1ccc2c(/C=C/c3ccccn3)n[nH]c2c1 [Axitinib] (10 nM)	96.7%
CC(O)(CS(=O)(=O)c1ccc(F)cc1)C(=O)Nc1ccc(C#N)c(C(F)(F)F)c1 (stereo not drawn) [Bicalutamide] (10 nM)	100%
CCNC(=O)CCC/C=C\C[C@@H]1[C@@H](/C=C/[C@@H](O)CCc2ccccc2)[C@H](O)C[C@@H]1O [Bimatoprost] (5.5 nM)	93.1%
COc1cc(Nc2c(C#N)cnc3cc(OCCCN4CCN(C)CC4)c(OC)cc23)c(Cl)cc1Cl [Bosutinib] (10 nM)	100%
CCN(CC)CCCC(C)Nc1ccnc2cc(Cl)ccc12 (stereo not drawn) [Chloroquine] (10 nM)	103%
CC1(COc2ccc3c(c2)ncn3-c2ccc3cccc(N4CCC(N)CC4)c3n2)COC1 [Crenolanib] (10 nM)	97.8%
CC(C)(C)c1nc(-c2cccc(NS(=O)(=O)c3c(F)cccc3F)c2F)c(-c2ccnc(N)n2)s1 [Dabrafenib] (2.5 nM)	98.5%
Nc1ccn([C@@H]2O[C@H](CO)[C@@H](O)C2(F)F)c(=O)n1 [Gemcitabine] (1 nM)	95.9%
O=C(O)CNC(=O)c1c(O)c2ccccc2n(Cc2ccccc2)c1=O [IOX-2] (50 nM)	98.1%
CC(=O)[C@]1(O)Cc2c(O)c3c(c(O)c2[C@@H](O[C@H]2C[C@H](N)[C@H](O)[C@H](C)O2)C1)C(=O)c1ccccc1C3=O [Idarubicin] (1 nM)	104%
C/C(=C\c1csc(C)n1)[C@@H]1C[C@@H]2O[C@]2(C)CCC[C@H](C)[C@H](O)[C@@H](C)C(=O)C(C)(C)[C@@H](O)CC(=O)N1 [Ixabepilone] (1 nM)	100%
CN(C)C(=N)NC(=N)N [Metformin] (100 nM)	108%
CC[C@H](CO)Nc1nc(NCc2ccccc2)c2ncn(C(C)C)c2n1 [Seliciclib] (10 nM)	91.9%
O=[N+]([O-])c1ccc2c(c1)S(=O)(=O)C=C2 [Stattic] (50 nM)	98.9%
O=C(CCCCCCC(=O)Nc1ccccc1)NO [Vorinostat] (10 nM)	87.9%

system: MDA-MB-231; experiment: as above; settings: incubation time: 72 h
Outline: as §1

Compound	normalised response
CCn1c(C(=O)N(C2CC2)C2CC2)cc2c3c(ncn3C)c(Nc3cc(C)n(C)n3)nc21 (1 nM)	106%
CCn1c(C(=O)N(C2CC2)C2CC2)cc2c3c(ncn3C)c(Nc3cc(C)n(C)n3)nc21 (10 nM)	100%
COc1ccc(S(=O)(=O)Nc2cccnc2Nc2ccc(O)cc2)cc1 [ABT-751] (10 nM)	100%
CN[C@@H](C)C(=O)N[C@H]1CN(C(=O)CC(C)C)CC[C@H]2CC[C@@H](C(=O)NC(c3ccccc3)c3ccccc3)N2C1=O [AT-406] (1 nM)	98.3%
CN[C@@H](C)C(=O)N[C@H]1CN(C(=O)CC(C)C)CC[C@H]2CC[C@@H](C(=O)NC(c3ccccc3)c3ccccc3)N2C1=O [AT-406] (10 nM)	95.5%
Cc1cc(Nc2nc(N[C@@H](C)c3ncc(F)cn3)ncc2Cl)[nH]n1 [AZD1480] (1 nM)	99.7%
CNC(=O)c1ccccc1Sc1ccc2c(/C=C/c3ccccn3)n[nH]c2c1 [Axitinib] (10 nM)	107%
CC(O)(CS(=O)(=O)c1ccc(F)cc1)C(=O)Nc1ccc(C#N)c(C(F)(F)F)c1 (stereo not drawn) [Bicalutamide] (10 nM)	105%
CCNC(=O)CCC/C=C\C[C@@H]1[C@@H](/C=C/[C@@H](O)CCc2ccccc2)[C@H](O)C[C@@H]1O [Bimatoprost] (5.5 nM)	101%
COc1cc(Nc2c(C#N)cnc3cc(OCCCN4CCN(C)CC4)c(OC)cc23)c(Cl)cc1Cl [Bosutinib] (10 nM)	96.1%
CCN(CC)CCCC(C)Nc1ccnc2cc(Cl)ccc12 (stereo not drawn) [Chloroquine] (10 nM)	101%
CC1(COc2ccc3c(c2)ncn3-c2ccc3cccc(N4CCC(N)CC4)c3n2)COC1 [Crenolanib] (10 nM)	106%
CC(C)(C)c1nc(-c2cccc(NS(=O)(=O)c3c(F)cccc3F)c2F)c(-c2ccnc(N)n2)s1 [Dabrafenib] (2.5 nM)	102%
Nc1ccn([C@@H]2O[C@H](CO)[C@@H](O)C2(F)F)c(=O)n1 [Gemcitabine] (1 nM)	97.4%
O=C(O)CNC(=O)c1c(O)c2ccccc2n(Cc2ccccc2)c1=O [IOX-2] (50 nM)	99.5%
CC(=O)[C@]1(O)Cc2c(O)c3c(c(O)c2[C@@H](O[C@H]2C[C@H](N)[C@H](O)[C@H](C)O2)C1)C(=O)c1ccccc1C3=O [Idarubicin] (1 nM)	109%
C/C(=C\c1csc(C)n1)[C@@H]1C[C@@H]2O[C@]2(C)CCC[C@H](C)[C@H](O)[C@@H](C)C(=O)C(C)(C)[C@@H](O)CC(=O)N1 [Ixabepilone] (1 nM)	101%
CN(C)C(=N)NC(=N)N [Metformin] (100 nM)	102%
CC[C@H](CO)Nc1nc(NCc2ccccc2)c2ncn(C(C)C)c2n1 [Seliciclib] (10 nM)	104%
O=[N+]([O-])c1ccc2c(c1)S(=O)(=O)C=C2 [Stattic] (50 nM)	101%
O=C(CCCCCCC(=O)Nc1ccccc1)NO [Vorinostat] (10 nM)	98.2%

system: HDQ-P1; experiment: as above; settings: incubation time: 72 h
Outline: as §1

Compound	normalised response
CCn1c(C(=O)N(C2CC2)C2CC2)cc2c3c(ncn3C)c(Nc3cc(C)n(C)n3)nc21 (1 nM)	99.6%
CCn1c(C(=O)N(C2CC2)C2CC2)cc2c3c(ncn3C)c(Nc3cc(C)n(C)n3)nc21 (10 nM)	95.6%
COc1ccc(S(=O)(=O)Nc2cccnc2Nc2ccc(O)cc2)cc1 [ABT-751] (10 nM)	98.5%
CN[C@@H](C)C(=O)N[C@H]1CN(C(=O)CC(C)C)CC[C@H]2CC[C@@H](C(=O)NC(c3ccccc3)c3ccccc3)N2C1=O [AT-406] (1 nM)	99.9%
CN[C@@H](C)C(=O)N[C@H]1CN(C(=O)CC(C)C)CC[C@H]2CC[C@@H](C(=O)NC(c3ccccc3)c3ccccc3)N2C1=O [AT-406] (10 nM)	102%
Cc1cc(Nc2nc(N[C@@H](C)c3ncc(F)cn3)ncc2Cl)[nH]n1 [AZD1480] (1 nM)	96.6%
CNC(=O)c1ccccc1Sc1ccc2c(/C=C/c3ccccn3)n[nH]c2c1 [Axitinib] (10 nM)	103%
CC(O)(CS(=O)(=O)c1ccc(F)cc1)C(=O)Nc1ccc(C#N)c(C(F)(F)F)c1 (stereo not drawn) [Bicalutamide] (10 nM)	105%
CCNC(=O)CCC/C=C\C[C@@H]1[C@@H](/C=C/[C@@H](O)CCc2ccccc2)[C@H](O)C[C@@H]1O [Bimatoprost] (5.5 nM)	94.5%
COc1cc(Nc2c(C#N)cnc3cc(OCCCN4CCN(C)CC4)c(OC)cc23)c(Cl)cc1Cl [Bosutinib] (10 nM)	97.3%
CCN(CC)CCCC(C)Nc1ccnc2cc(Cl)ccc12 (stereo not drawn) [Chloroquine] (10 nM)	99%
CC1(COc2ccc3c(c2)ncn3-c2ccc3cccc(N4CCC(N)CC4)c3n2)COC1 [Crenolanib] (10 nM)	103%
